Laboratory results reported in US20230266302A1, “SYNTHESIS AND USE OF N-BENZYL SULFONAMIDES” (THE UNIVERSITY OF TULSA, priority 2020, published 2023).

Tests used:
Test in all cases: ATP level assay (CellTiter-Glo), percent of control
Format in all cases: cell-based
[1] = tested on: H293 (kidney cancer); details: two hour incubation; for activity at 100 µM: 2 h, compound alone, control DMSO, read-out: POC (percent of control) H293
[2] = tested on: HeLa (cervical cancer); details: two hour incubation; for activity at 100 µM: Homo sapiens, HeLa, 2 h, compound alone, control DMSO, read-out: POC (percent of control) HeLa
[3] = tested on: MCF7 (breast cancer); details: two hour incubation; for activity at 100 µM: Homo sapiens, MCF7, 2 h, compound alone, control DMSO, read-out: POC (percent of control) MCF7
[4] = tested on: MCF10A (non-cancerous breast); details: two hour incubation; for activity at 100 µM: Homo sapiens, MCF-10A, 2 h, compound alone, control DMSO, read-out: POC (percent of control) MCF10A
[5] = tested on: SkBr3 (breast cancer); details: two hour incubation; for activity at 100 µM: Homo sapiens, SK-BR-3, 2 h, compound alone, control DMSO, read-out: POC (percent of control) SkBr3
[6] = tested on: PC3 (prostate cancer); details: two hour incubation; for activity at 100 µM: 2 h, compound alone, control DMSO, read-out: POC (percent of control) PC3
[7] = tested on: HDF (normal cells); details: two hour incubation; for activity at 100 µM: 2 h, compound alone, control DMSO, read-out: POC (percent of control) HDF
[8] = tested on: NCI-H196 (lung cancer); details: two hour incubation; for activity at 100 µM: NCI-H196, 2 h, compound alone, control DMSO, read-out: POC (percent of control) NCI-H196
[9] = tested on: T47D (breast cancer); details: two hour incubation; for activity at 100 µM: Homo sapiens, T47D, 2 h, compound alone, control DMSO, read-out: POC (percent of control) T47D
[10] = tested on: MDA-MB (breast cancer); details: two hour incubation; for activity at 100 µM: 2 h, compound alone, control DMSO, read-out: POC (percent of control) MDA-MB
[11] = tested on: BxPC3 (pancreatic cancer); details: two hour incubation; for activity at 100 µM: Homo sapiens, BXPC-3, 2 h, compound alone, control DMSO, read-out: POC (percent of control) BxPC3
[12] = compound 100 uM + 2DG (about 10-20 mM)
[13] = compound 100 uM + rotenone (approximately 1.25 μM)

Row | SMILES | activity at 100 µM [1] [%] | POC (percent of control) H293 [1, 12] | POC (percent of control) H293 [1, 13] | activity at 100 µM [2] [%] | POC (percent of control) HeLa [2, 12] | POC (percent of control) HeLa [2, 13] | activity at 100 µM [3] [%] | POC (percent of control) MCF7 [3, 12] | POC (percent of control) MCF7 [3, 13] | activity at 100 µM [4] [%] | POC (percent of control) MCF10A [4, 12] | POC (percent of control) MCF10A [4, 13] | activity at 100 µM [5] [%] | POC (percent of control) SkBr3 [5, 12] | POC (percent of control) SkBr3 [5, 13] | activity at 100 µM [6] [%] | POC (percent of control) PC3 [6, 12] | POC (percent of control) PC3 [6, 13] | activity at 100 µM [7] [%] | POC (percent of control) HDF [7, 12] | other results
1 | COc1ncccc1CNS(=O)(=O)c1ccccc1 [Compound 13, N-[(2-methoxypyridin-3-yl)methyl]benzenesulfonamide] | 101 | 69.4% of control | 81.1% of control | 94.6 | 90.7% of control | 94.1% of control | 127 | 89.7% of control | 116.5% of control | 94.8 | 96.1% of control | 84% of control | 101 | 87.2% of control | 96.5% of control | 82.2 | 97.3% of control | 101.2% of control | 96.5 | 104.2% of control | POC (percent of control) HDF [7, 13]: 98.3% of control; activity at 100 µM [8]: 87.6%; POC (percent of control) NCI-H196 [8, 12]: 127.4% of control; POC (percent of control) NCI-H196 [8, 13]: 99.7% of control; activity at 100 µM [9]: 84.3%; POC (percent of control) T47D [9, 12]: 88.8% of control; POC (percent of control) T47D [9, 13]: 90% of control; activity at 100 µM [10]: 101%; POC (percent of control) MDA-MB [10, 12]: 81.9% of control; POC (percent of control) MDA-MB [10, 13]: 103.8% of control; activity at 100 µM [11]: 91.2%; POC (percent of control) BxPC3 [11, 12]: 74.1% of control; POC (percent of control) BxPC3 [11, 13]: 55.3% of control
2 | Cc1cccc2[nH]cc(CNS(=O)(=O)c3ccccc3)c12 [Compound 7, N-[(4-methyl-1H-indol-3-yl)methyl]benzenesulfonamide] | 93.2 | 60.9% of control | 65.3% of control | 91 | 70.6% of control | 79.5% of control | 107 | 91.6% of control | 75.9% of control | 66 | 64.5% of control | 97.9% of control | 108 | 76.2% of control | 88.2% of control | 95 | 59.4% of control | 82% of control | 87.7 | 60.8% of control | POC (percent of control) HDF [7, 13]: 77.9% of control; activity at 100 µM [8]: 84.9%; POC (percent of control) NCI-H196 [8, 12]: 70.1% of control; POC (percent of control) NCI-H196 [8, 13]: 77.7% of control; activity at 100 µM [9]: 46.5%; POC (percent of control) T47D [9, 12]: 40.1% of control; POC (percent of control) T47D [9, 13]: 66% of control; activity at 100 µM [10]: 85.6%; POC (percent of control) MDA-MB [10, 12]: 81.2% of control; POC (percent of control) MDA-MB [10, 13]: 102.4% of control; activity at 100 µM [11]: 86.3%; POC (percent of control) BxPC3 [11, 12]: 60.9% of control; POC (percent of control) BxPC3 [11, 13]: 79.1% of control
